This is an account of results in ChEMBL document CHEMBL5137008, “Recent advances of antitumor shikonin/alkannin derivatives: A comprehensive overview focusing on structural classification, synthetic approaches, and mechanisms of action” (Eur J Med Chem, 2022).

The structures appear in SMILES notation.

One data set deals with MOLT-4. The data set is described as follows: Anticancer activity against human MOLT-4 cells assessed as inhibition of cell proliferation incubated for 72 hrs by SRB assay. The format is functional, cell-based. The note with it: MOLT-4, 72 h.
Data set [1] has as its system A549. Kind of data set: Anticancer activity against human A549 cells assessed as inhibition of cell proliferation incubated for 72 hrs by SRB assay. The conditions noted are these: A549, 72 h. The format is functional, cell-based.
The next data set relates to SJRH30. The data set is described as follows: Anticancer activity against human Rh30 cells assessed as inhibition of cell proliferation incubated for 72 hrs by SRB assay. The format is functional, cell-based. The note with it: SJRH30, 72 h.
A short description of data set [2]: Cytotoxicity against human L02 cells assessed as inhibition of cell growth incubated for 24 hrs by MTT assay. The format is toxicity, cell-based.
The subject of data set [3] is HepG2. Kind of data set: Anticancer activity against human HepG2 cells assessed as inhibition of cell growth incubated for 24 hrs by MTT assay. The format is functional, cell-based. The note with it: HepG2, 24 h.
A short description of data set [4]: Anticancer activity against human A875 cells assessed as inhibition of cell growth incubated for 24 hrs by MTT assay. The format is functional, cell-based. The note with it: A875, 24 h.
Data set [5] in a line: Antitubulin activity against bovine brain tubulin polymerization preincubated with compound followed by GTP addition by turbidimetry-based spectrophotometric method. Also on record: species or system Bos taurus.
For data set [6], the system named is HeLa. The data set is described as follows: cells. The note with it: Homo sapiens, 24 h.
The test system of data set [7] is A549. The data set is described as follows: Anticancer activity against human A549 cells assessed as inhibition of cell growth incubated for 72 hrs by MTT assay. The format is functional, cell-based. The note with it: A549, 72 h.
The nature of data set [8]: Anticancer activity against human A875 cells assessed as inhibition of cell growth incubated for 72 hrs by MTT assay. The format is functional, cell-based. The note with it: A875, 72 h.
A further data set deals with SW872. Kind of data set: Anticancer activity against human SW872 cells assessed as inhibition of cell growth incubated for 72 hrs by MTT assay. The conditions noted are these: SW872, 72 h. The format is functional, cell-based.
For a further data set, the system named is MCF7. Kind of data set: Antiproliferative activity against human MCF7 cells assessed as inhibition of cell proliferation incubated for 20 hrs by MTT assay. The conditions noted are these: MCF7, 20 h. The format is functional, cell-based.
Data set [9] is described as follows: Antiproliferative activity against human BGC cells assessed as inhibition of cell proliferation incubated for 20 hrs by MTT assay. The format is functional, cell-based.
The test system of data set [10] is HepG2. Kind of data set: Antiproliferative activity against human HepG2 cells assessed as inhibition of cell proliferation incubated for 20 hrs by MTT assay. The format is functional, cell-based. The note with it: HepG2, 20 h.
Data set [11] relates to A549. Kind of data set: Antiproliferative activity against human A549 cells assessed as inhibition of cell proliferation incubated for 20 hrs by MTT assay. The format is functional, cell-based. The conditions noted are these: A549, 20 h.
For another data set, the system named is L02. The data set is described as follows: Antiproliferative activity against human L02 cells assessed as inhibition of cell proliferation incubated for 20 hrs by MTT assay. The format is functional, cell-based. The note with it: L02, 20 h.
The test system of data set [12] is HeLa. Kind of data set: Antiproliferative activity against human HeLa cells assessed as inhibition of cell proliferation incubated for 20 hrs by MTT assay. The format is functional, cell-based.
Data set [13] can be described thus: Cytotoxicity against human L02 cells incubated for 48 hrs by MTT assay. The format is toxicity, cell-based.
The next data set relates to SGC-7901. Kind of data set: Anticancer activity against human SGC-7901 cells incubated for 48 hrs by MTT assay. The format is functional, cell-based. The note with it: SGC-7901, 48 h, read-out: IC50.
Another data set has as its system MGC-803. Kind of data set: Anticancer activity against human MGC-803 cells incubated for 48 hrs by MTT assay. The format is functional, cell-based. The note with it: MGC-803, 48 h.
A further data set concerns SMMC-7721. The data set is described as follows: Anticancer activity against human SMMC-7721 cells incubated for 48 hrs by MTT assay. The format is functional, cell-based. The note with it: SMMC-7721, 48 h.
Another data set relates to U-87 MG. The data set is described as follows: Anticancer activity against human U87 cells incubated for 48 hrs by MTT assay. The format is functional, cell-based, U-87MG ATCC.
Data set [14] relates to HeLa. The data set is described as follows: Antiproliferative activity against human HeLa cells assessed as reduction in cell viability incubated for 24 hrs by MTT assay. The format is functional, cell-based.
Data set [15] deals with A549. The data set is described as follows: Antiproliferative activity against human A549 cells assessed as reduction in cell viability incubated for 24 hrs by MTT assay. The format is functional, cell-based. The note with it: A549, 24 h.
Data set [16] has as its system HepG2. The data set is described as follows: Antiproliferative activity against human HepG2 cells assessed as reduction in cell viability incubated for 24 hrs by MTT assay. The format is functional, cell-based. The conditions noted are these: HepG2, 24 h.
Data set [17] can be described thus: Cytotoxicity against human L02 cells assessed as reduction in cell viability incubated for 24 hrs by MTT assay. The format is toxicity, cell-based.

Consider `CC(C)=CC[C@@H](OC(=O)c1ccco1)C1=CC(=O)c2c(O)ccc(O)c2C1=O`, for which the IC50 was determined as 300 nM in the data set with MOLT-4, 460 nM in the data set with A549 [1] and 470 nM with SJRH30.
As to `CC(C)=CC[C@@H](OC(=O)CCCOc1ccc(Cl)cc1C)C1=CC(=O)c2c(O)ccc(O)c2C1=O`, the 50% inhibitory concentration (IC50) at 24 h in data set [2] is over 100 µM. Also, the half-maximal inhibitory concentration (IC50) in the data set with HepG2 [3] is 430 nM; in [4] it was 1520 nM; in data set [5], 16.9 µM; in the data set on HeLa [6], 4.44 µM.
On to `CC(C)=CC[C@@H](OC(=O)Cc1ccc(Oc2ccccc2)cc1)C1=CC(=O)c2c(O)ccc(O)c2C1=O`, for which the half-maximal inhibitory concentration (IC50) at 24 h in [2] is over 100 µM. For the same molecule, the half-maximal inhibitory concentration (IC50) in the data set with HepG2 [3] was 426 nM; in data set [4], 1240 nM; in data set [5] it was 4.31 µM; in the data set with HeLa [6], 4.31 µM.
For `CC(C)=CC[C@@H](OC(=O)/C=C/c1cccc(C(F)(F)F)c1)C1=CC(=O)c2c(O)ccc(O)c2C1=O`, the concentration for half-maximal inhibition (IC50) in the data set on A549 [7] is 1620 nM; in [8] it was 650 nM; in the data set with SW872, 690 nM.
Take `CC(C)=CC[C@@H](OC(=O)C(Cc1ccccc1)N1C(=O)c2ccccc2C1=O)C1=CC(=O)c2c(O)ccc(O)c2C1=O` (stereo not given in full): the 50% inhibitory concentration (IC50) in the data set on MCF7 is 3.05 µM; in data set [9], over 100 µM; in the data set with HepG2 [10] it was 1690 nM; with A549 [11] it was over 100 µM; with L02 it was over 100 µM; in the data set with HeLa [12], 2920 nM.
As for `CC(C)=CC[C@@H](OC(=O)/C=C/c1ccc(F)c(F)c1)C1=CC(=O)c2c(O)ccc(O)c2C1=O`, the IC50 in the data set on A549 [7] amounted to 2100 nM; in data set [8], 550 nM; in the data set with SW872, 360 nM.
Consider `CC(C)=CC[C@@H](OC(=O)[C@@H](Cc1ccccc1)N1C(=O)C2C3C=CC(C3)C2C1=O)C1=CC(=O)c2c(O)ccc(O)c2C1=O` (stereo not given in full), for which the IC50 with MCF7 was 3.55 µM; in [9], 11.6 µM; in the data set on HepG2 [10], 1920 nM; in the data set on A549 [11], over 100 µM; with L02 it was over 100 µM; with HeLa [12], 1260 nM.
For `CC(C)=CC[C@@H](OC(=O)CCC(=O)Nc1ccc(Oc2ccccc2)cc1)C1=CC(=O)c2c(O)ccc(O)c2C1=O`, in data set [13], the IC50 at 48 h is over 50 µM. Moreover, the IC50 was 4.1 µM in the data set with SGC-7901, 4.1 µM in the data set with MGC-803, 20.6 µM in the data set on SMMC-7721 and 3.8 µM in the data set on U-87 MG.
With `CC(C)=CC[C@@H](OC(=O)C1CC1)C1=CC(=O)c2c(O)ccc(O)c2C1=O`, the IC50 with HeLa [14] is 3.47 µM; with A549 [15], 3.73 µM; in the data set with HepG2 [16], 759 nM. The half-maximal inhibitory concentration (IC50) at 24 h in [17] was over 100 µM.
